Like-named read-outs stand apart in the source and are kept apart here.
Key:
[1] = tested on: experimentally induced cerebral ischemia; conditions: cited from earlier work
experimental rat model = conditions: cited from earlier work; for effectiveness against buthionine sulfoximine-induced cataract: comparison of enantiomers and racemate
rats = conditions: oral administration; cited from earlier work
mice = conditions: oral administration; cited from earlier work
Human Jurkat T cells = experiment: Increase in intracellular glutathione levels, Jurkat T cells (GSH by HPLC); type: cell-based
Protocol: (§1) Human Jurkat T cells and U937 cells, a human myelomonocyclic cell line, were used for the experiments. Jurkat and U937 cells were cultivated in RPMI 1640 medium (Bio Whittaker, Belgium)—supplemented with 10% heat-inactivated fetal calf serum (FCS; Linaris, Germany), 1% penicillin/streptomycin (Life Technologies, Scotland) and 2 mM L-glutamine (Sigma, Mont.)—under standard conditions (95% humidity, 5% CO2 and 37° C.). After harvesting, the cells were washed 2× with PBS, resuspended in standard medium (RPMI 1640 with 10% FCS, 1% streptomycin/penicillin, without L-glutamine) in a concentration of 2×10^5 cells/ml and transferred into […] culture bottles. The cells were treated with and without addition of 2 mM glutamine and in each case with or without 100 μM α-lipoic acid over a period of 4, 8, 24 or 48 h. After the respective treatment period had elapsed, the cells were harvested and washed 2× with PBS. 2×10^6 cells were resuspended in sulfosalicylic acid (6.5% in distilled water; Marck, Germany) and incubated on ice for 15 min. The supernatant after pelleting of the cells (5 000 g, 10 min) was aspirated off and stored at −20° C. until glutathione was determined by HPLC.

[2] = tested on: U937 cells, a human myelomonocyclic cell line; experiment: Increase in intracellular glutathione levels, U937 cells (GSH by HPLC); type: cell-based
Protocol: as §1

aged mice = conditions: cited from earlier work
mice 6-8 weeks old = conditions: mice on vitamin E-deficient diet; 1.65 g/kg of body weight; cited from earlier work
diabetes patients = conditions: daily 600 mg for more than 3 months; cited from earlier work
[3] = 0.05 mM glutamine added to culture medium
[4] = 2 mM glutamine added to culture medium

O=C(O)CCCC[C@@H](S)CCS (racemic) [dihydrolipoic acid]
infarct size ([1]; 50 and 100 mg/kg body weight): reduction in the infarct size

O=C(O)CCCCC1CCSS1 (racemic) [racemic mixture]
effectiveness against buthionine sulfoximine-induced cataract (experimental rat model): effective

O=C(O)CCCC[C@H]1CCSS1 (single isomer, unassigned) [S enantiomer]
effectiveness against buthionine sulfoximine-induced cataract (experimental rat model): effective

O=C(O)CCCC[C@@H]1CCSS1 [(R)-α-lipoic acid, (R)-5-(1,2-dithiolan-3-yl) valeric acid]
mitochondrial function (rats): improvement in mitochondrial function | effectiveness against buthionine sulfoximine-induced cataract (experimental rat model): effective

NC(=O)CCC(N)C(=O)O (stereo not drawn) [glutamine, 2-aminopentanoic acid 5-amide]
number of lymphocytes in Peyer's patches (mice): increased number of lymphocytes | concentration of reduced glutathione (GSH) (Human Jurkat T cells; [3]): no significant change | concentration of reduced glutathione (GSH) (Human Jurkat T cells; [4]): significant increases | concentration of reduced glutathione (GSH) [2, 3]: no significant change | concentration of reduced glutathione (GSH) [2, 4]: significant increases

O=C(O)CCCCC1CCSS1 (stereo not drawn) [lipoic acid, 5-(1,2-dithiolan-3-yl)valeric acid]
infarct size ([1]; iv, 25 mg/kg body weight): reduction in the infarct size | long-term memory (aged mice): improve the long-term memory | symptoms of vitamin E deficiency phenomena (muscular dystrophy, weight loss) (mice 6-8 weeks old): prevents the symptoms | oxidative stress (diabetes patients): reduction in oxidative stress | cataract induced by buthionine sulfoximine (experimental rat model; rat model, subcutaneous injection 25 mg/kg body weight twice): significant reduction
